Reference: patent US20180207177A1, “TREATMENT OF TRIPLE NEGATIVE BREAST CANCER UTILIZING ANDROST-5-ENE-3b,17b-DIOL (b-AED), ANDROST-5-ENE-3b,7b,17b-TRIOL (b-AET) AND ESTRADIOL (E2)” (Government of the United States as Represented by the …, priority 2017, published 2018)

Tests used:
293T cells = experiment: Biological function (phenotype, mobile cells) in 293T cells; assay type: cell-based, human
Description: A non-toxic vehicle for administration of androstene hormones according to embodiments of the present invention was prepared from a first solution and a second solution. The first solution, comprising liposomal formulation, was placed in PEG 300 to a concentration of 5% and heated in a sonicating water bath to about 45° C. The second solution, comprising a selected hormone (one or more of 5Δ-androsten-3β, 17α-diol, 5Δ-androsten-3β, 17β-diol, or 5Δ-androsten-3β,7β,17β-triol), was placed in PEG 300 and heated in a sonicating water bath to about 45° C. The first and second solutions were then combine and stirred until dissolved.
Biological function was tested in 293T cells, which is a human embryonic cell line transformed with Large T antigen […] SV40. This hypotriploid (polyploid) cell line is particularly useful in such transformation studies and has very distinct phenotypes when grown. All androstene hormone treatment applications were at concentrations of 25 μM.

[1] = system: MDA-MB-231 breast cancer cell; experiment: Cell death in MDA-MB-231 breast cancer cell cultures; assay type: cell-based; details: 25 μM β-AED, 25 μM β-AET, 5 nM E2; PEG 300/LIPOFECTAMINE vehicle
Description: (§1) Hormone dependent, noninvasive, epithelial phenotype (ER/PR positive MCF-7 breast cancer cells) and hormone independent, invasive, mesenchymal phenotype (ER/PR negative MDA-MB-231 breast cancer cell) cell suspensions were acquired and prepared in complete medium (DMEM/F12, 10% FBS, 1% penicillin/streptomycin (Gibco)). Cellular concentration was adjusted to 2×10^5 cells/mL.
(§2) Androstene hormone solutions according to embodiments of the present invention were prepared from a first solution and a second solution. For the first solution, 3.0 mg of β-AED or β-AET was added to warm PEG 300 to prepare 50 mM stock. For the second solution, 10 μL of LIPOFECTAMINE (3:1 DOSPA:DOPE) was introduced to 100 μL of PEG 300, mixed, and incubated in a water bath at 42° C. for 30 min. The first and second solutions were then mixed in a sonicator water bath at 42° C. for 1 hr. The final concentration was 50 mM β-AED (or AET, as used).
(§3) A β-estradiol solution was also prepared by adding 2.7 mg of β-estradiol to 200 μL warmed PEG 300 with LIPOFECTAMINE and then further diluted 1:1000 with PEG-300. The final concentration was 50 μM.
A diluted β-AED (or β-AET) solution was prepared with complete medium at a final concentration of 50 μM (1:1000 dilute of 50 mM). Likewise, a diluted β-E2 solution was prepared with complete medium at a final concentration of 10 nM (1:5000 dilute of 50 μM). […]

[2] = system: MCF-7 breast cancer cells; experiment: Cell death and growth in MCF-7 breast cancer cell cultures; assay type: cell-based; details: for MCF7 Cell Death Amount: 25 μM β-AED, 25 μM β-AET, PEG 300/LIPOFECTAMINE vehicle; for cell growth / cell density (microscopic photograph): compared to vehicle FIG. 14
Description: as §1, §2, §3
A diluted β-AED (or β-AET) solution was prepared with complete medium at a final concentration of 50 μM (1:1000 dilute of 50 mM). Likewise, a diluted β-E2 solution was prepared with complete medium at a final concentration of 10 nM (1:5000 dilute of 50 μM).
Using a 24-well plate, mixtures of 0.5 mL of cells per well with 0.5 mL of medium diluted hormone vehicle. Cell cultures were maintained at 90% humidity, 7% CO2, and 37° C.

[3] = vehicle PEG 300, androstene hormone 25 μM
[4] = MCF-7 grown for 5 days, 25 μM androstene, 5 nM E2

SMILES | cell islands (photograph) (293T cells; [3]) | mobile cells / cell processes (photograph) (293T cells; [3]) | mobile cells / mobile elements and processes (photograph) (293T cells; vehicle PEG 300 and LIPOFECTAMINE, β-AED 25 μM, E2 5 nM) | MDA-MB-231 Cell Death Amount [1] | MCF7 Cell Death Amount ([2]; 5 nM E2) | particles / cell bodies produced by cells in response to treatment [2, 4] | cell growth / cell density (microscopic photograph) [2, 4] | Additional Observation ([2]; cell line not given, particles shown for MCF-7 in FIG. 15)
C[C@]12CC[C@H]3[C@@H](CC=C4C[C@@H](O)CC[C@@]43C)[C@@H]1CC[C@@H]2O [β-AED, androst-5-ene-3β,17β-diol] | cell islands are larger | significant reduction in mobile cells | drastic decrease in, or morphological change, in mobile elements | Not observed | Not observed | small particles | not as heath and there are areas of decreased density | Cell particles observed
C[C@]12CC[C@H]3[C@@H]([C@@H](O)C=C4C[C@@H](O)CC[C@@]43C)[C@@H]1CC[C@@H]2O [β-AET, 5-androstene-3β,7β,17β-triol] |  |  |  | Not observed | Not observed |  | thick and similar to the cell growth of FIG. 14 | 
